According to patent US20070123556A1, “Treatment with Sigma Receptor Agonists Post-Stroke” (UNIVERSITY OF SOUTH FLORIDA, priority 2005, published 2007):

What was measured:
[1] = test system: rats subjected to MCAO; test: isolectin IB4 labeling, activated microglia/macrophages after MCAO; assay type: in vivo, rat; conditions: 15 mg/kg DTG from 24 h post-MCAO
Experimental: (§1) MCAO surgery was performed as previously reported by Vendrame et al (Vendrame et al., 2004) and originally described by Longa et al (Longa et al., 1989). Laser Doppler Radar (LDR) was used to monitor decrease in blood perfusion which indicates successful occlusion (Moor Instruments Ltd, Devon, England). A 2 mm diameter hole was drilled into the right parietal bone (1 mm posterior and 4 mm lateral from bregma), and a guide screw was set. The LDR probe (MP10M200ST; Moor) was inserted into the guide screw, and the tip of the probe was placed against the pial surface of the brain. […] For MCAO, the embolus (4 cm long, 6 lb test monofilament) was advanced up the internal carotid artery into the middle cerebral artery and tied off at the internal/external carotid junction to produce permanent occlusion. The rat was then sutured, given a 1 ml subcutaneous injection of saline, and allowed to wake in a fresh cage.
(§2) Rats were randomly assigned to 1 of 7 groups: (1) MCAO (n=7); (2) MCAO and 15 mg/kg DTG in a 3% lactic acid vehicle (n=11); (3) MCAO and 30 mg/kg DTG (n=16); (4) MCAO and bi-daily injections of 30 mg/kg DTG (n=12); (5) MCAO and 10 mg/kg N-[2-(3,4-dichlorophenyl)ethyl]-N-methyl-2-(dimethylamino)ethylamine (BD 1047) (n=4); (6) MCAO and 10 mg/kg BD1047+30 mg/kg DTG (n=4); (7) sham/MCAO and 15 mg/kg DTG (n=4). […]

[2] = test system: rats; conditions: doses as high as 30 mg/kg; cited from earlier work
[3] = test system: rats subjected to MCAO; test: NeuN immunostaining, viable neurons after MCAO; assay type: in vivo, rat; conditions: 15 mg/kg
Experimental: as §1, with “cage. […]” for “cage.”
[…]. […] The area of the contralateral side of the brain tissue was measured and used to compensate for possible edema in ipsilateral hemispheres. NeuN immunostaining was analyzed using the NIH Image J software to count NeuN positive cells by particle analysis in the ipsilateral hemispheres of the corticalustriatal and corticaluhippocampal regions of the rat brains at a magnification of 10×.

[4] = test system: cultured microglia; conditions: response to LPS; cited from earlier work
[5] = test system: rats subjected to MCAO; test: GFAP immunostaining, reactive astrocytes after MCAO; assay type: in vivo, rat; conditions: 15 mg/kg DTG from 24 h post-MCAO
Experimental: as §1, §2

[6] = test system: cultured cortical neurons; test: spontaneous Ca2+ transients, fura-2 [Ca2+]i; assay type: cell-based, rat; conditions: 100 μM

## Cc1ccccc1NC(=N)Nc1ccccc1C [DTG, 1,3-di-o-tolyguanidine]
[1]
  isolectin IB4-positive cells in the infarct zone: fails to elicit these elevations
[2]
  tolerability: well tolerated
[3]; 24 hr post stroke
  increase of surviving NeuN cells in the infarct zone relative to MCAO-only animals: > 83%
[3]; cortical/striatal and cortical/hippocampal, p<0.001
  number of viable neurons (NeuN) in ipsilateral infarct zones: significantly increased
[4]
  production of TNF-α: inhibits
  production of nitric oxide: inhibits
[5]
  level of GFAP expression in brain sections: marked decrease
[6]
  effect on spontaneous increases in [Ca2+]i (number of events): reversibly block
